In patent US8889874B2, “Imidazolone-chalcone derivatives as potential anticancer agent and process for the preparation thereof” (Council of Scientific and Industrial Research, priority 2010, dated 2014):

What was measured:
Type in all cases: cell-based, human
[1] = system: ACHN (renal); assay: NCI anticancer screen, SRB assay, 48 h
Outline: (§1)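 Sulforhodamine B protein assay read cell growth after 48 h of continuous compound exposure. Dose-response curves per cell line used at least five 10-fold-diluted concentrations, within a panel of fifty-three human lines from nine tumour types.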

[2] = system: COLO 205 (colon); assay: NCI anticancer screen, SRB assay, 48 h
Outline: as §1

[3] = system: HCC-2998 (colon); assay: NCI anticancer screen, SRB assay, 48 h
Outline: as §1

[4] = system: HOP-62 (non-small cell lung); assay: NCI anticancer screen, SRB assay, 48 h
Outline: as §1

[5] = system: M14 (melanoma); assay: NCI anticancer screen, SRB assay, 48 h
Outline: as §1

[6] = system: NCI-H460 (non-small cell lung); assay: NCI anticancer screen, SRB assay, 48 h
Outline: as §1

[7] = system: NCI/ADR-RES (ovarian); assay: NCI anticancer screen, SRB assay, 48 h
Outline: as §1

[8] = system: OVCAR-5 (ovarian); assay: NCI anticancer screen, SRB assay, 48 h
Outline: as §1

[9] = system: RXF 393 (renal); assay: NCI anticancer screen, SRB assay, 48 h
Outline: as §1

[10] = system: SF-539 (CNS); assay: NCI anticancer screen, SRB assay, 48 h
Outline: as §1

[11] = system: SK-MEL-2 (melanoma); assay: NCI anticancer screen, SRB assay, 48 h
Outline: as §1

[12] = system: SK-MEL-28 (melanoma); assay: NCI anticancer screen, SRB assay, 48 h
Outline: as §1

[13] = system: SN12C (renal); assay: NCI anticancer screen, SRB assay, 48 h
Outline: as §1

[14] = system: SNB-19 (CNS); assay: NCI anticancer screen, SRB assay, 48 h
Outline: as §1

[15] = system: U251 (CNS); assay: NCI anticancer screen, SRB assay, 48 h
Outline: as §1

[16] = system: UO-31 (renal); assay: NCI anticancer screen, SRB assay, 48 h
Outline: as §1

[17] = system: Breast cancer cell lines; assay: NCI anticancer screen, SRB assay, panel summary
Procedure: (§2) Some of biological activity studies were carried out at the National Cancer Institute (NCI), Maryland, USA.
(§3) The compounds were evaluated for anticancer activity against fifty three human cancer cells derived from nine cancer types (leukemia cell line, non-small-cell lung cell line, colon cell line, CNS cell line, melanoma cell line, ovarian cell line, prostate cell line, and breast cancer cell line) as shown in Table 1. For each compound, dose response curves for each cell line were measured at a minimum of five concentrations at 10 fold dilutions. A protocol of 48 h continuous drug exposure was used and a sulforhodamine B (SRB) protein assay was used to estimate cell viability or growth.

[18] = system: CNS cancer cell lines; assay: NCI anticancer screen, SRB assay, panel summary; conditions: CNS panel
Procedure: as §2, §3

[19] = system: Colon cancer cell lines; assay: NCI anticancer screen, SRB assay, panel summary; conditions: Colon panel
Procedure: as §2, §3

[20] = system: Leukemia cancer cell lines; assay: NCI anticancer screen, SRB assay, panel summary; conditions: Leukemia panel
Procedure: as §2, §3

[21] = system: Melanoma cancer cell lines; assay: NCI anticancer screen, SRB assay, panel summary; conditions: Melanoma panel
Procedure: as §2, §3

[22] = system: Non-small cell lung cancer cell lines; assay: NCI anticancer screen, SRB assay, panel summary
Procedure: as §2, §3

[23] = system: Ovarian cancer cell lines; assay: NCI anticancer screen, SRB assay, panel summary
Procedure: as §2, §3

[24] = system: Renal cancer cell lines; assay: NCI anticancer screen, SRB assay, panel summary
Procedure: as §2, §3

[25] = 48 h exposure, SRB, read-out: GI50
[26] = log of concentration in mol/L causing 50% inhibition of net cell growth
[27] = log of concentration leading to 50% net cell death
[28] = log of concentration resulting in total inhibition of net cell growth

COc1cc(/C=C/C(=O)c2cccc(-n3cc(-c4ccc(Cl)cc4)[nH]c3=O)c2)cc(OC)c1OC [5f, 4-(4-chlorophenyl)-1-3-[(E)-3-(3,4,5-trimethoxyphenyl)-2-propenoyl]phenyl-2,3-dihydro-1H-2-imidazolone]
pGI50 (-log of molar concentration causing 50% inhibition of net cell growth) [1]: 5.14 | GI50 [1, 25]: 7.17 µM | pGI50 (-log of molar concentration causing 50% inhibition of net cell growth) ([2]; COLO205): 5.13 | GI50 ([2]; COLO 205, 48 h exposure, SRB, read-out: GI50): 7.38 µM | pGI50 (-log of molar concentration causing 50% inhibition of net cell growth) [3]: 5.61 | GI50 [3, 25]: 2.46 µM | pGI50 (-log of molar concentration causing 50% inhibition of net cell growth) [4]: 4.63 | pGI50 (-log of molar concentration causing 50% inhibition of net cell growth) [5]: 5.36 | GI50 [5, 25]: 4.36 µM | pGI50 (-log of molar concentration causing 50% inhibition of net cell growth) [6]: 5.43 | GI50 [6, 25]: 3.74 µM | pGI50 (-log of molar concentration causing 50% inhibition of net cell growth) ([7]; NCI/ADR-RES): 5.63 | GI50 ([7]; NCl/ADR-RES, 48 h exposure, SRB, read-out: GI50): 2.36 µM | pGI50 (-log of molar concentration causing 50% inhibition of net cell growth) [8]: 5.51 | GI50 [8, 25]: 3.11 µM | GI50 ([9]; RXF 393, 48 h exposure, SRB, read-out: GI50): 3.22 µM | pGI50 (-log of molar concentration causing 50% inhibition of net cell growth) ([9]; RXF-393): 5.49 | pGI50 (-log of molar concentration causing 50% inhibition of net cell growth) [10]: 5.46 | GI50 [10, 25]: 3.49 µM | pGI50 (-log of molar concentration causing 50% inhibition of net cell growth) [11]: 5.46 | GI50 [11, 25]: 3.44 µM | pGI50 (-log of molar concentration causing 50% inhibition of net cell growth) [12]: 4.96 | GI50 [12, 25]: 10.9 µM | pGI50 (-log of molar concentration causing 50% inhibition of net cell growth) ([13]; SN 12C): 5.29 | GI50 ([13]; SN12C, 48 h exposure, SRB, read-out: GI50): 5.14 µM | pGI50 (-log of molar concentration causing 50% inhibition of net cell growth) [14]: 4.79 | GI50 [14, 25]: 16.1 µM | pGI50 (-log of molar concentration causing 50% inhibition of net cell growth) [15]: 5.67 | GI50 [15, 25]: 2.12 µM | pGI50 (-log of molar concentration causing 50% inhibition of net cell growth) [16]: 5.15 | GI50 [16, 25]: 7.03 µM | mean graph midpoint (MG_MID) of Log10 LC50 [17]: 4.11 | mean graph midpoint (MG_MID) of Log10 GI50 ([17]; Breast panel, log of concentration in mol/L causing 50% inhibition of net cell growth): 5.18 | mean graph midpoint (MG_MID) of Log10 TGI ([17]; Breast panel, log of concentration resulting in total inhibition of net cell growth): 4.38 | mean graph midpoint (MG_MID) of Log10 GI50 [18, 26]: 5.08 | mean graph midpoint (MG_MID) of Log10 LC50 [18, 27]: 4.24 | mean graph midpoint (MG_MID) of Log10 TGI [18, 28]: 4.50 | mean graph midpoint (MG_MID) of Log10 GI50 [19, 26]: 5.53 | mean graph midpoint (MG_MID) of Log10 LC50 [19, 27]: 4.76 | mean graph midpoint (MG_MID) of Log10 TGI [19, 28]: 5.15 | mean graph midpoint (MG_MID) of Log10 GI50 [20, 26]: 5.42 | mean graph midpoint (MG_MID) of Log10 TGI [20, 28]: 4.00 | mean graph midpoint (MG_MID) of Log10 GI50 [21, 26]: 5.17 | mean graph midpoint (MG_MID) of Log10 LC50 [21, 27]: 4.24 | mean graph midpoint (MG_MID) of Log10 TGI [21, 28]: 4.56 | mean graph midpoint (MG_MID) of Log10 LC50 [22]: 4.06 | mean graph midpoint (MG_MID) of Log10 GI50 ([22]; Non-small cell lung panel, log of concentration in mol/L causing 50% inhibition of net cell growth): 4.72 | mean graph midpoint (MG_MID) of Log10 TGI ([22]; Non-small cell lung panel, log of concentration resulting in total inhibition of net cell growth): 4.28 | mean graph midpoint (MG_MID) of Log10 LC50 [23]: 4.22 | mean graph midpoint (MG_MID) of Log10 GI50 ([23]; Ovarian panel, log of concentration in mol/L causing 50% inhibition of net cell growth): 5.26 | mean graph midpoint (MG_MID) of Log10 TGI ([23]; Ovarian panel, log of concentration resulting in total inhibition of net cell growth): 4.62 | mean graph midpoint (MG_MID) of Log10 LC50 [24]: 3.73 | mean graph midpoint (MG_MID) of Log10 GI50 ([24]; Renal panel, log of concentration in mol/L causing 50% inhibition of net cell growth): 5.15 | mean graph midpoint (MG_MID) of Log10 TGI ([24]; Renal panel, log of concentration resulting in total inhibition of net cell growth): 4.55
